Values after ≈ are worked out from the molar mass of the structure shown.
System: HIV-1 (RF)
Experiment: HIV RNA assay: microplate based compound evaluation in HIV-1 infected MT-2 cells
Assay type: cell-based
Settings: Human immunodeficiency virus 1, MT2, 72 h; HIV-1 (RF) infected MT-2 cells, 3 days of culture; virus dilutions selected to standardize the inoculum to this value; read-out: IC90 value (concentration of compound required to reduce the HIV RNA level by 90%)
Experimental: Plasmid pDAB 72 containing both gag and pol sequences of BH 10 (bp 113-1816) cloned into PTZ 19R was prepared according to Erickson-Viitanen et al. AIDS Research and Human Retroviruses 1989, 5, 577. The plasmid was linearized with Bam HI prior to the generation of in vitro RNA transcripts using the Riboprobe Gemini system 11 kit (Promega) with T7 RNA polymerase. Synthesized RNA was purified by treatment with RNase free DNAse (Promega), phenol-chloroform extraction, and ethanol precipitation. RNA transcripts were dissolved in water, and stored at −70° C. The concentration of RNA was determined from the A260.
Biotinylated capture probes were purified by HPLC after synthesis on an Applied Biosystems (Foster City, Calif.) DNA synthesizer by addition of biotin to the 5′ terminal end of the oligonucleotide, using the biotin-phosphoramidite reagent of Cocuzza, Tet. Lett. 1989, 30, 6287. […]
MT-2 and MTA cells were maintained in RPM 1640 supplemented with 5% fetal calf serum (FCS) for MT-2 cells or 10% FCS for MTA cells, 2 mM L-glutamine and 50 μg/mL gentamycin, all from Gibco. […] Infectious titers of HIV-1 (RF) stocks were 1-3×10^7 PFU (plaque forming units)/mL as measured by plaque assay on MT-2 cells (see below). […]

SMILES: Nc1ccn([C@H]2CC[C@@H](CO)O2)c(=O)n1 [ddC, dideoxycytidine]
- IC90: 0.2 µg/mL (≈ 0.947 µM)

Source: patent publication US6391919B1, “Bis-amino acid sulfonamides containing substituted benzyl amines HIV protease inhibitors” (Bristol-Myers Squibb Pharma Company, priority 2000, dated 2002)
